The values that follow come from US8802712B2, “Pyrazoloquinolines” (Merck Patent GmbH, priority 2010, dated 2014).

Broadly, the IC50 is the concentration needed to halve the response being measured. One may read the melting point as the temperature, or range, at which the solid turns liquid.

Where two headings read alike, the source gives them in different places. Bounds are passed on as bounds.

Data set [1] has as its target T1, DNA-PK (Homo sapiens (Human), UniProt P78527). In words: DNA-PK/Biochemical Assay (FlashPlate kinase assay). Conditions: 5 μM ATP, 90 min, room temperature. The protocol:
The kinase assay was carried out in streptavidin-coated […] microtitre FlashPlates®. To this end, 1.5 μg of the DNA-PK/protein complex and 100 ng of biotinylated substrate, such as, for example, […] biotin-NH2 (“biotin-DNA-PK peptide”), in a total volume of 36.5 μl (34.25 mM HEPES/KOH, 7.85 mM Tris-HCl, 68.5 mM KCl, 5 μM ATP, 6.85 mM MgCl2, 0.5 mM EDTA, 0.14 mM EGTA, 0.69 mM DTT, pH 7.4), were incubated at room temperature for 90 min with 500 ng of DNA from calf thymus, 0.1 μCi of 33P-ATP and 1.8% of DMSO per well with or without the test compound. The reaction was stopped using 50 μl/well of 200 mM EDTA. After incubation for a further 30 min at room temperature, the liquid was removed. Each well was washed three times with 100 μl of 0.9% sodium chloride solution. A non-specific reaction (blank value) was determined using 10 μM of a proprietary kinase inhibitor. The radioactivity measurement was carried out by means of a TopCount. IC50 values were calculated in RS1. • Literature: Kashishian et al. (2003) Molecular Cancer Therapeutics 1257.

In data set [2] the test system is kinases of the PI3K isoenzyme family. The following applies: cited from earlier work.
Data set [3] relates to CHK2 phosphorylation at threonine 68 in HCT116 cells. In words: Cellular CHK2 Phosphorylation at Threonine 68. It is filed as cell-based. The following applies: Homo sapiens, HCT-116, 6 h; HCT116, 10 μM bleomycin, six hours, ELISA; read-out: IC50 (CHK2 phospho-threonine 68). The protocol:
Cellular CHK2 Phosphorylation at Threonine 68
HCT116 cells were cultivated in MEM alpha medium with 10% of foetal calf serum, 1 mM sodium pyruvate and 2 mM glutamine at 37° C. and 10% CO2. The cells were detached from the base of the culture vessels with the aid of trypsine/EDTA, centrifuged off in centrifuge tubes and taken up in fresh medium. The cell density was subsequently determined. 50,000 cells were sown per cavity of a 96-well cell culture plate in 0.1 ml of culture medium and cultivated overnight. Next day, 10 μM bleomycin and test substances in fresh culture medium were added to the cells and these were cultivated for a further six hours. After lysis of the cells, phospho-threonine 68 of the CHK2 kinase was detected in the lysates with the aid of a phospho-CHK2 (Thr68)-specific ELISA detection system (Catalogue No. 7037, Cell Signaling Technologies, USA). The ELISA colour reaction was measured spectrophotometrically at 450 nm. The extinction of the unstimulated controls (vehicle control without bleomycin) was subtracted from the extinction values of the treatment groups. The controls which were treated with bleomycin were set equal to 100% and all other extinction values were set in relation thereto. IC50 values were determined with the aid of the GraphPad Prism statistics program (GraphPad Software, USA) or Assay Explorer (Symyx Technologies Inc., USA).
In general terms: ELISA stands for enzyme-linked immunosorbent assay.

For data set [4], the system named is colorectal carcinoma cell line HCT116. As to the kind of experiment: Cellular Colony Growth Test with X-ray irradiation. It is filed as cell-based. Conditions: Homo sapiens, HCT-116, 4.8 Gy X-rays. The procedure:
Cellular Colony Growth Test The colorectal carcinoma cell line HCT116 was cultivated in MEM alpha medium with 10% oif foetal calf serum, 1 mM sodium pyruvate and 2 mM glutamine at 37° C. and 10% CO2. The cells were detached from the base of the culture vessels with the aid of trypsine/EDTA, centrifuged off in centrifuge tubes and taken up in fresh medium. The cell density was subsequently determined. 300 cells were sown out in 6-well cell culture plates in 2 ml of culture medium and cultivated overnight. Next day, the cells were treated with test substances for one hour before the cell culture plates were treated with defined doses of X-rays (in general 0, 2.4, 4.8, 12 Gray; irradiation instrument: Faxitron RX-650; Faxitron X-Ray LLC, USA). In order to determine the dose/effect relationships, the cells were treated with various concentrations of a test substance. After irradiation, the cells are cultivated for a further 24 hours in the presence of the test substance, the culture medium was then replaced with culture medium without test substance, and the cells were cultivated for a further 6-8 days. The cell colonies formed were subsequently stained with the aid of Crystal Violet and counted in a colony counter (Gelcount, Oxford Optronics, UK). Dose/effect curves, in particular IC50 values, were determined using a curve adaptation function for nonlinear dose/effect relationships.

For data set [5], the target named is T1, DNA-PK. The following applies: 5.0 mM ATP; cited from earlier work.
The subject of data set [6] is mammal cells. Conditions: in cellular terms; cited from earlier work.
The target of data set [7] is T1, DNA-PK. Conditions: ATP-competitive; cited from earlier work.

In the case of `COc1cc2ncc3c(c(-c4ccc(C#N)cc4)nn3C)c2cc1OCCN(C)C` [Compound 40, 4-[8-(2-Dimethylamino-ethoxy)-7-methoxy-3-methyl-3H-pyrazolo[3,4-c]quinolin-1-yl]benzonitrile], the melting point is 212.2 °C. The same molecule yielded an IC50 in data set [1] of more than 100 nM. As for `COc1cc2ncc3[nH]nc(-c4ccc(C#N)c(N5CCCC5)c4)c3c2cc1OC` [Compound 70, 4-(7,8-Dimethoxy-3H-pyrazolo[3,4-c]quinolin-1-yl)-2-pyrrolidin-1-yl-benzonitrile], the melting point is 291 °C (dec.). In addition, the concentration for half-maximal inhibition (IC50) in data set [1] was less than 100 nM.

Regarding `CCN1CCN(CC(=O)Nc2ccc(-c3cccc4c(=O)cc(N5CCOCC5)oc34)c3sc4ccccc4c23)CC1` [KU-0060648], in data set [2], the “inhibition of kinases of the PI3K isoenzyme family” value is given as “potently inhibited”. Consider `COc1cc2ncc3c(c(-c4ccc(C#N)cc4F)nn3C)c2cc1OC(C(N)=O)c1ccccc1` (stereo not drawn) [Compound 91, 2-[1-(4-Cyano-2-fluoro-phenyl)-7-methoxy-3-methyl-3H-pyrazolo[3,4-c]-quinolin-8-yloxy]-2-phenyl-acetamide], for which the IC50 in data set [3] was in the range of 100 to 500 nM. `COc1cc2ncc3c(c(-c4ccc(C#N)cc4F)nn3C)c2cc1OC` [Compound 90, 4-(7,8-Dimethoxy-3-methyl-3H-pyrazolo-[3,4-c]quinolin-1-yl)-3-fluorobenzonitrile] gave an IC50 in data set [4] of 100 to 500 nM. The molecule `COc1cc2c(cc1O)ncc1c2c(-c2ccc(C#N)cc2)nn1C` [Compound 4, 4-(7-Hydroxy-8-methoxy-3-methyl-3H-pyrazolo-[3,4-c]quinolin-1-yl)-benzonitrile] yielded a melting point of 288.9 °C. The same molecule displayed a concentration for half-maximal inhibition (IC50) in data set [1] of less than 100 nM. Take `O=c1cc(N2CCOCC2)oc2c(-c3ccccc3)cccc12` [LY294002]: in data set [5], the IC50 was 1250 nM. The “increase in sensitivity to ionising irradiation” value in data set [6] is reported as “only a weak increase in sensitivity”. As to `O=c1cc(N2CCOCC2)oc2c(-c3cccc4c3sc3ccccc34)cccc12` [NU-7441], the half-maximal inhibitory concentration (IC50) in data set [7] is 20 nM. Molecule `COc1cc2ncc3c(c(-c4ccc(C#N)cc4F)nn3Cc3cccnc3)c2cc1OC` [Compound 64, 4-(7,8-Dimethoxy-3-pyridin-3-ylmethyl-3H-pyrazolo[3,4-c]-quinolin-1-yl)-3-fluoro-benzonitrile] had a half-maximal inhibitory concentration (IC50) in data set [1] of more than 500 nM. As for `COc1cc2ncc3c(c(-c4ccc(C#N)cc4)nn3C)c2cc1OCc1ccc(CO)cc1` [Compound 27, 4-[8-(4-Hydroxymethyl-benzyloxy)-7-methoxy-3-methyl-3H-pyrazolo[3,4-c]-quinolin-1-yl]benzonitrile], in data set [1], the IC50 was less than 100 nM. `CCN1CCN(CCNC(=O)C(Oc2cc3c(cc2OC)ncc2c3c(-c3ccc(C#N)cc3)nn2C)c2ccc(F)cc2)CC1` (stereo not drawn) [Compound 48, 2-[1-(4-Cyano-phenyl)-7-methoxy-3-methyl-3H-pyrazolo-[3,4-c]quinolin-8-yloxy]-N-[2-(4-ethyl-piperazin-1-yl)ethyl]-2-(4-fluorophenyl)-acetamide] displayed a melting point of 110 to 112 °C. The molecule further gave an IC50 in data set [1] of 100 to 500 nM. On to `COc1cc2c(cc1OCCN(C)C)ncc1c2c(-c2ccc(C#N)cc2)nn1C` [Compound 46, 4-[7-(2-Dimethylamino-ethoxy)-8-methoxy-3-methyl-3H-pyrazolo[3,4-c]quinolin-1-yl]benzonitrile], for which the IC50 in data set [1] is more than 500 nM. `COc1cc2ncc3c(c(-c4ccc(C#N)cc4)nn3C)c2cc1OC(C(N)=O)c1ccc(F)cc1` (stereo not drawn) [Compound 8, 2-[1-(4-Cyanophenyl)-7-methoxy-3-methyl-3H-pyrazolo[3,4-c]quinolin-8-yloxy]-2-(4-fluorophenyl)-acetamide] yielded a melting point of 249.2 °C. Also, in data set [1], the 50% inhibitory concentration (IC50) is less than 100 nM. In data set [1], `COc1cc2ncc3c(c(-c4ccc(C#N)cc4)nn3C)c2cc1OCc1cccc(-c2csc(C)n2)c1` [Compound 45, 4-{7-Methoxy-3-methyl-8-[3-(2-methylthiazol-4-yl)-benzyloxy]-3H-pyrazolo-[3,4-c]quinolin-1-yl}-benzonitrile] displayed an IC50 of 100 to 500 nM.

As for `COc1cc2ncc3c(c(-c4ccc(C#N)cc4)nn3C)c2cc1OCc1ccccn1` [Compound 13, 4-[7-Methoxy-3-methyl-8-(pyridin-2-ylmethoxy)-3H-pyrazolo[3,4-c]quinolin-1-yl]-benzonitrile], the concentration for half-maximal inhibition (IC50) in data set [1] was more than 500 nM. In data set [1], `COc1cc2ncc3c(c(-c4ccc(C#N)cc4)nn3C)c2cc1OC(C(=O)NOCC#N)c1ccc(F)cc1` (stereo not drawn) [Compound 51, N-Cyanomethoxy-2-[1-(4-cyanophenyl)-7-methoxy-3-methyl-3H-pyrazolo[3,4-c]-quinolin-8-yloxy]-2-(4-fluorophenyl)-acetamide] displayed a half-inhibitory concentration (IC50) of 100 to 500 nM. Take `COc1cc2ncc3[nH]nc(-c4ccc(C#N)c(Cl)c4)c3c2cc1OC` [Compound 7, 2-Chloro-4-(7,8-dimethoxy-3H-pyrazolo-[3,4-c]quinolin-1-yl)-benzonitrile]: the half-inhibitory concentration (IC50) in data set [1] was less than 100 nM. Molecule `CCn1nc(-c2ccc(C#N)cc2)c2c3cc(OC)c(OC)cc3ncc21` [Compound 56, 4-(7,8-Dimethoxy-3-ethyl-3H-pyrazolo[3,4-c]quinolin-1-yl)-benzonitrile] yielded a melting point of 227.4 °C. Further, the half-inhibitory concentration (IC50) in data set [1] was less than 100 nM. In turn, `COc1cc2ncc3c(c(-c4ccc(C#N)cc4F)nn3C)c2cc1O` [Compound 6, 3-Fluoro-4-(8-hydroxy-7-methoxy-3-methyl-3H-pyrazolo[3,4-c]quinolin-1-yl)benzonitrile] came in with an IC50 in data set [1] of less than 100 nM. `COc1cc2ncc3c(c(-c4ccc(C#N)c(Br)c4)nn3C)c2cc1OC` [Compound 3] showed an IC50 in data set [1] of less than 100 nM.
